{"source": "patent US11357778B2", "about": "“Antagonist of the fibroblast growth factor receptor 3 (FGFR3) for use in the treatment or the prevention of skeletal disorders linked with abnormal activation of FGFR3” (INSTITUT NATIONAL DE LA SANTE ET DE LE RECHERCHE MEDICALE …, priority 2011, dated 2022)", "key": {"[1]": {"system": "FGFR3^Y373C, FGFR3^K650E, FGFR3^K650M", "experiment": "Constitutive FGFR3 phosphorylation in transfected human chondrocyte lines / HEK cells (immunoprecipitation, immunoblot, immunocytochemistry)", "assay_type": "cell-based", "method": "Human Embryonic Kidney (HEK) cells and human chondrocyte lines (Benoist-Lasselin et al., FEBS Lett, 581: 2593-2598, 2007.) were transfected transiently with FGFR3 human constructs (FGFR^3Y373C, FGFR3^K650M, FGFR3^K650E) (Gibbs, L. and Legeai-Mallet, L. Biochim Biophys Acta, 1773: 502-512, 2007) using Fugene 6 (Roche). A31 (31) or PD173074 (Parke Davies) were added at a concentration of 2 mM overnight. Transfected cells were lysed in RIPA buffer (50 mM Tris-HCl pH 7.6, 150 mM NaCl, 0.5% NP40, 0.25% sodium deoxycholate, supplemented with protease and phosphatase inhibitors).\nImmunoprecipitation were performed by incubating […] rabbit anti-FGFR3 (Sigma)/[…] protein with protein A-agarose (Roche). […] Bound proteins were detected by chemiluminescence (ECL, Amersham). The blots were rehybrididized with an antipan-actin antibody for quantification (Millipore).\nFor immunocytochemistry, the inventors used the following primary antibodies: anti-FGFR3 antibodies (1:400 dilution; Sigma) and anti-phosphotyrosine antibodies (1:200 dilution; Cell Signaling) and secondary antibodies Alexa Fluor®488 goat antirabbit and Alexa Fluor®568 goat anti-mouse (1:400 dilution; Molecular Probes). Cells were covered with Faramount Aquaeous Mounting Medium (Dako) and analyzed using an Olympus PD70-IX2-UCB microscope. […]"}, "[2]": {"system": "FGFR3^Y373C transfected NIH3T3 cells", "experiment": "[3H]-thymidine incorporation in NIH3T3 cells expressing FGFR3^Y373C", "assay_type": "cell-based, mouse", "conditions": "A31 2 mM", "method": "NIH-3T3 clones stably expressing FGFR3^+/+ (WT) and FGFR3^Y373C, FGFR3K650M (human constructs) were used. The stable clones were selected with G418. NIH-3T3 clones were incubated for 8 h in 10% newborn calf serum DMEM supplemented or not with A31 (2 mM). [3H] thymidine was added at a concentration of […] and incubated for 16 hours. The cells were harvested on glass fiber filter paper and assayed for radioactivity by liquid scintillation counting. The inventors used Top Count Microplates scintillation counter (Perkin Elmer).\nTo determine whether A31 modulates the mitogenic activity of activated FGFR3, the inventors measured [3H]-thymidine incorporation in FGFR3^Y373C and FGFR3^K650M transfected NIH3T3 cells. The mitogenic activity was increased in cells expressing FGFR3 mutations compared to WT (FGFR3^Y373C, 9927±2921 cpm; FGFR3^K650M, 15048±5251 cpm; WT, 7499±1667 cpm; p<10^−5 versus WT)."}, "[3]": {"system": "Fgfr3^Y367C/+ femurs", "experiment": "Ex vivo culture of E16.5 embryonic femur explants, bone length", "assay_type": "cell-based, mouse", "method": "(§1) Six sets of ex vivo experiments were performed. Femur embryos at day E16.5 from WT (n=6) and Fgfr3^Y367C/+ (n=6) mice were used and incubated for 5 days in DMEM medium with antibiotics and 0.2% BSA (Sigma) supplemented with A31 or PD173074 (as control) at a concentration of 2 mM. Right femur was cultured in supplemented medium and compared with the left one cultured in control medium. Rib cage from E16.5 WT and Fgfr3^Y367C/+ mice embryos were isolated and stripped of all soft tissues. Primary chondrocytes were obtained from rib cages. The ribs were incubated in a pronase solution (Roche; 2 mg/ml) followed by a digestion in Collagenase A (Roche; 3 mg/ml) at 37° C. Isolated chondrocytes were plated out at a density of 2.105 cells in 6-well plates containing DMEM supplemented with 10% FCS and antibiotics, and were allowed to reach subconfluency. Cultures were supplemented with A31 or PD173074 (as control) at a concentration of 2 mM. Cells were treated with A31 (2 mM) PD173074 (as control) in serum-free DMEM supplemented with 0.2% BSA and harvested after 24 h. To establish the effect of the inhibitors, the right femur was cultured in supplemented medium and compared with the left one cultured in control medium The bone length was measured at the beginning (before treatment) and at the end of time course. Each experiment was repeated at least three times. The genotype of WT, Fgfr3^Y367C/+ and Fgfr3^−/− mice were determined by PCR of tail DNA as previously described (Pannier et al., Biochim Biophys Acta, 1792: 140-147, 2009). All experimental procedures and protocols were approved by the Animal Care and Use Committee.\nFgfr3^Y367C/+ mice display reduced length of long bones, broad femurs, a narrow trunk, short ribs and a slightly dome-shaped skull, closely resembling achondroplasia (FIGS. 3A and B). The inventors analyzed the effects of A31 on endochondral ossification in Fgfr3^Y367C/+ mice by using an ex vivo culture system for embryonic day 16.5 (E16.5) limb explants. […] After 5 days of culture, the increase in length of the treated mutant femurs was 2.6 times more than for that of WT.\nThus, embryonic femur explants were co-incubated with 150 nM of PD173074 for 5 days.\nEmbryonic femur explants were co-incubated 100 nM (10^−7M) or 1 μM (10^−6M) of BGJ-398 for 6 days."}, "[4]": {"system": "WT femurs", "experiment": "Ex vivo culture of E16.5 embryonic femur explants, bone length, wild type", "assay_type": "cell-based, mouse", "conditions": "A31 2 mM, 5 days of culture", "method": "as §1, with “Cells were treated with A31 (2 mM) PD173074 (as control) in serum-free DMEM supplemented with 0.2% BSA and harvested after 24 h.” left out, “Each experiment was repeated at least three times.” left out, “All experimental procedures and protocols were approved by the Animal Care and Use Committee.” left out"}, "[5]": {"molecular_target": "FGFR3 (Homo sapiens, UniProt P22607)", "sequence (P22607 23-806)": "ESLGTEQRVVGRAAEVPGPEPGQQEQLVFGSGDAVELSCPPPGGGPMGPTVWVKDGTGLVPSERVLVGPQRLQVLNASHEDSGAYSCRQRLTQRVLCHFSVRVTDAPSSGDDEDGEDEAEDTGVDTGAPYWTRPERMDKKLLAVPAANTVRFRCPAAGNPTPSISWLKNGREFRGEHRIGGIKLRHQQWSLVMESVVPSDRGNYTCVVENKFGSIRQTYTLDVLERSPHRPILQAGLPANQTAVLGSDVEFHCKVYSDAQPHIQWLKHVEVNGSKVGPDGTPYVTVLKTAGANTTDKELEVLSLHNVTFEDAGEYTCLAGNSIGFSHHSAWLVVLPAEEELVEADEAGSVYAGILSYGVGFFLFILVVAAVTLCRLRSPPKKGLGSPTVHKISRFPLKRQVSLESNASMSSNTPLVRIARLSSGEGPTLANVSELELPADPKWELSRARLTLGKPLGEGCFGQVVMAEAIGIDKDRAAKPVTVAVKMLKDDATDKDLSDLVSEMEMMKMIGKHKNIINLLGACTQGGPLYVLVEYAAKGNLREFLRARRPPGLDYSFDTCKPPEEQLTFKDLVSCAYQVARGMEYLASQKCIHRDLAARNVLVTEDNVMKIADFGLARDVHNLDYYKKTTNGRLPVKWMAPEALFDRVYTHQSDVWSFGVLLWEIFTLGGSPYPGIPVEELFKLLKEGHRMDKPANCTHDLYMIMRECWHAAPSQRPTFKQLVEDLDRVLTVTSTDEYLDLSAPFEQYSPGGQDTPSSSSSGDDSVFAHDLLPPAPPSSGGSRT", "conditions": "read-out: IC50 for inhibition of autophosphorylation of FGFR3; cited from earlier work"}}, "data": [{"smiles": "COc1cc(OC)cc(-c2cc3cnc(NCc4cn(CC5CCCN(C)C5)nn4)nc3nc2NC(=O)NC(C)(C)C)c1", "note": "(centres unmarked) [Compound A31]", "values": [{"measurement": "constitutive FGFR3 receptor phosphorylation (immunoprecipitation and Western blotting)", "setting": "[1]; 2 mM overnight, cells expressing FGFR3^Y373C, FGFR3^K650E, FGFR3^K650M", "result": "abolished receptor phosphorylation"}, {"measurement": "FGFR3 phosphorylation by immunocytochemistry", "setting": "[1]; transfected cells expressing FGFR3 mutations, data not shown", "result": "complete inhibition"}, {"measurement": "[3H]-thymidine incorporation (DNA synthesis)", "setting": "[2]", "result": "3144±1201", "unit": "cpm"}, {"measurement": "limb growth in Fgfr3^Y367C/+ femurs (in words)", "setting": "[3]; A31 2 mM, 5 days", "result": "fully restore limb growth"}, {"measurement": "longitudinal bone growth (gain in femur length)", "setting": "[3]; A31 2 mM, 5 days of culture, Fgfr3^Y367C/+ femurs", "result": "1880±558", "unit": "μm"}, {"measurement": "increase in length of treated mutant femurs relative to WT", "setting": "[3]; A31, after 5 days of culture", "result": 2.6, "unit": "times"}, {"measurement": "longitudinal bone growth (gain in femur length)", "setting": "[4]", "result": "1863±255", "unit": "μm"}, {"measurement": "IC50", "setting": "[5]", "result": "~190", "unit": "nM"}]}]}
